The values below are quoted from earlier work in patent US20110028420A1, “Regression of Established Atherosclerotic Plaques, and Treating Sudden-Onset Asthma Attacks, using PARP Inhibitors” (priority 2008, published 2011).

One data set concerns the target T1, PARP1 (Mus musculus, UniProt P11103).
T1 construct: host or cells: cortical neuron cultures
The conditions noted are these: cortical neuron cultures; cited from earlier work.

A further data set relates to rat. Conditions: cited from earlier work; for Anti-inflammatory effects in gut inflammation: post-injury administration; for Accumulation of poly (ADP-ribose) in ileum and colon: splanchnic artery occlusion-shocked rats, dinitrobenzene sulfonic acid-treated rats.
The next data set concerns PARP-2. Conditions: cited from earlier work.
The next data set concerns mice. Conditions: chronic administration; cited from earlier work.

T1 sequence (P11103 2-1013 limits assumed): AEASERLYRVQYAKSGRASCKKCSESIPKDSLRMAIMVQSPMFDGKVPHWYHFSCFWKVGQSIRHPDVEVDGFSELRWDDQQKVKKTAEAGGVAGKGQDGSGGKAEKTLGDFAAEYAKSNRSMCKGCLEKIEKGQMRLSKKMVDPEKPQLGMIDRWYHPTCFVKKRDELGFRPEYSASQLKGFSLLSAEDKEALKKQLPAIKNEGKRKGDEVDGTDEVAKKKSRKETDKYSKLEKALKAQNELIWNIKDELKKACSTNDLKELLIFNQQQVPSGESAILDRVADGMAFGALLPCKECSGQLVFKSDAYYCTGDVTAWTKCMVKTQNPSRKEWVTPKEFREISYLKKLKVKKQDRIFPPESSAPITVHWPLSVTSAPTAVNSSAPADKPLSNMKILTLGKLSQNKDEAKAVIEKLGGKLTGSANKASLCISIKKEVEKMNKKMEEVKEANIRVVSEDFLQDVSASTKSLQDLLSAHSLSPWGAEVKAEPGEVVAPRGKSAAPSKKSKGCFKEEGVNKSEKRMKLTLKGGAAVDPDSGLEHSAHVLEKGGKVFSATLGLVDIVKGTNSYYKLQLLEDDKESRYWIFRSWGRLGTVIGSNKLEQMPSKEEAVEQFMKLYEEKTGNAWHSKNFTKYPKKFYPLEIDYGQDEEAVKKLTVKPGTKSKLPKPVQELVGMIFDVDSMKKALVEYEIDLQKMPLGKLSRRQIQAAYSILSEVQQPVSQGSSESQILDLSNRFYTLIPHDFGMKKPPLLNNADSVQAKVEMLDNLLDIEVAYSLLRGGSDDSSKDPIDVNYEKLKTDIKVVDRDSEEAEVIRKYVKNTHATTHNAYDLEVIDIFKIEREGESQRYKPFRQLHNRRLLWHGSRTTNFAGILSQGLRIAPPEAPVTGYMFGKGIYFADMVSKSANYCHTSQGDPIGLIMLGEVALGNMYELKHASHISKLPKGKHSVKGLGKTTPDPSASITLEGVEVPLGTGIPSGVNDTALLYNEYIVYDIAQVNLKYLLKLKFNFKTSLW

`O=C1NCCc2c(OCCCCN3CCCCC3)cccc21` [3,4-dihydro-5-[4-(1-piperidinyl)butoxy]-1(2H)-isoquinolinone]: the “Induced PARP1 activation” value at PARP1 is given as “inhibited”. In the case of `CN1CCN(Cc2ccc3c(c2)-c2n[nH]c(=O)c4cccc(c24)O3)CC1` [GPI 15427, 10-(4-methyl-piperazin-1-ylmethyl)-2H-7-oxa-1,2-diaza-benzo[de]anthracen-3-one], in the data set with rat, the “Anti-inflammatory effects in gut inflammation” value was “potent anti-inflammatory effects”; the “Accumulation of poly (ADP-ribose) in ileum and colon” value is recorded as “diminished”. Consider `O=C(Oc1cccc2cnccc12)c1ccccc1` [5-benzoyloxyisoquinoline], for which, in the data set with PARP-2, the “Selectivity for the PARP-2 isotype over the PARP-1 isotype” value is given as 60 fold. Turning to `CN1CCN(c2ccc3[nH]c(=O)c4ccccc4c3n2)CC1` [GPI 16539, 2-(4-methyl-piperazin-1-yl)-5H-benzo[c][1,5]naphthyridin-6-one], in the data set with rat, the “Anti-inflammatory effects in gut inflammation” value is recorded as “potent anti-inflammatory effects”; the “Accumulation of poly (ADP-ribose) in ileum and colon” value was “diminished”. Turning to `CN(C)[C@@H]1C(O)=C(C(N)=O)C(=O)[C@@]2(O)C(O)=C3C(=O)c4c(O)ccc(Cl)c4[C@@H](O)[C@H]3C[C@@H]12` [demeclocycline], the “Rank order of potency of tetracycline derivatives” value at PARP1 is recorded as “minocycline>doxycycline>demeclocycline>chlortetracycline”. `CN(C)CC(=O)Nc1ccc2[nH]c(=O)c3ccccc3c2c1` [PJ34]: in the data set with mice, the “Plaque formation in atherosclerosis” value is on record as “markedly decreased”.
